Laboratory results reported in ChEMBL document CHEMBL5338791, “Discovery of Novel 1,3-Diphenylpyrazine Derivatives as Potent S-Phase Kinase-Associated Protein 2 (Skp2) Inhibitors for the Treatment of Cancer” (J Med Chem, 2023).
Active and inactive are the calls of the source. No cut-off for these calls is given here.

Assays:
NCI-N87 = test: Antitumor activity against human NCI-N87 cells with low Skp2 expression assessed as cell growth inhibition incubated for 72 hrs by MTT assay; type: functional, cell-based; conditions: NCI-N87, 72 h
[1] = Toxicity in NOD-SCID mouse model xenografted with human MGC-803 cells assessed as change in kidney histology at 10 to 50 mg/kg, IG administered once every 2 days for 21 days by H and E staining based analysis; type: organism-based; conditions: in vivo, po, 504 h, dose 10-50 mg/kg, time 21 day
MGC-803 [2] = test: Induction of apoptosis in human MGC-803 cells assessed as early apoptotic cells at 5 uM incubated for 48 hrs by annexin V-FITC/PI staining based flow cytometry (reference value: 0.21 %); type: functional
MGC-803 [3] = test: Upregulation of p21 level in human MGC-803 cells upto 10 uM by Western blot analysis; type: functional, cell-based; conditions: time 48.0 hrs, TDE = time-dependent effect
PC-3 [4] = test: Induction of cell cycle arrest in human PC-3 cells assessed as accumulation of cells at S phase at 10 uM incubated for 48 hrs by flow cytometry (reference value: 19.7 %); type: functional
ES-2 = test: Antitumor activity against human ES2 cells overexpressing Skp2 assessed as cell growth inhibition incubated for 72 hrs by MTT assay; type: functional, cell-based; conditions: ES-2, 72 h
[5] = Toxicity in NOD-SCID mouse model xenografted with human MGC-803 cells assessed as drug tolerance at 10 to 50 mg/kg, IG administered once every 2 days for 21 days; type: organism-based; conditions: in vivo, po, 504 h, dose 10-50 mg/kg, time 21 day
PC-3 [6] = test: Antitumor activity against human PC-3 cells xenografted in NOD-SCID mouse model assessed as p21 accumulation at 10 to 50 mg/kg, IG administered once every 2 days for 21 days by Western blot analysis; type: functional, organism-based; conditions: dose 10-50 mg/kg, time 21.0 day
MGC-803 [7] = test: Inhibition of colony formation in human MGC-803 cells at 0.5 to 2 uM incubated for 10 days by crystal violet staining based microscopy; type: functional, cell-based; conditions: dose 0.5-2 µM, time 10.0 day
MGC-803 [8] = test: Induction of cell cycle arrest in human MGC-803 cells assessed as accumulation of cells at G1 phase at 10 uM incubated for 36 hrs by flow cytometry (reference value: 57.09 %); type: functional
[9] = Toxicity in NOD-SCID mouse model xenografted with human PC-3 cells assessed as change in liver histology at 10 to 50 mg/kg, IG administered once every 2 days for 21 days by H and E staining based analysis; type: organism-based; conditions: in vivo, po, 504 h, dose 10-50 mg/kg, time 21 day
PC-3 [10] = test: Induction of cell cycle arrest in human PC-3 cells assessed as accumulation of cells at G1 phase at 2.5 uM incubated for 48 hrs by flow cytometry (reference value: 57.39 %); type: functional
PC-3 [11] = test: Antitumor activity against human PC-3 cells xenografted in NOD-SCID mouse model assessed as tumor growth inhibition at 25 mg/kg, IG administered once every 2 days for 21 days relative to control; type: functional; conditions: PC-3, po, 504 h, time 21 day, read-out: TGI
PC-3 [12] = test: Induction of cell cycle arrest in human PC-3 cells assessed as accumulation of cells at G1 phase at 10 uM incubated for 24 hrs by flow cytometry (reference value: 56.81 %); type: functional
PC-3 [13] = test: Antitumor activity against human PC-3 cells xenografted in NOD-SCID mouse model assessed as increase in apoptosis in tumor tissue at 10 to 50 mg/kg, IG administered once every 2 days for 21 days by TUNEL staining based analysis; type: functional, organism-based; conditions: dose 10-50 mg/kg, time 21.0 day
PC-3 [14] = test: Induction of cell cycle arrest in human PC-3 cells assessed as accumulation of cells at S phase at 10 uM incubated for 6 hrs by flow cytometry (reference value: 19.7 %); type: functional
PC-3 [15] = test: Induction of apoptosis in human PC-3 cells assessed as early apoptotic cells at 2.5 uM incubated for 48 hrs by annexin V-FITC/PI staining based flow cytometry (reference value: 0.85 %); type: functional
[16] = Toxicity in NOD-SCID mouse model xenografted with human PC-3 cells assessed as change in lung histology at 10 to 50 mg/kg, IG administered once every 2 days for 21 days by H and E staining based analysis; type: organism-based; conditions: in vivo, po, 504 h, dose 10-50 mg/kg, time 21 day
[17] = Biodistribution in tumor of NOD-SCID mouse model xenografted with human PC-3 cells at 25 mg/kg, IG measured for 48 hrs by LC-MS/MS analysis; type: ADME, organism-based, Neoplasm; conditions: in vivo, po
PC-3 [18] = test: Induction of cell cycle arrest in human PC-3 cells assessed as accumulation of cells at G2 phase at 10 uM incubated for 6 hrs by flow cytometry (reference value: 19.34 %); type: functional
[19] = Cmax in plasma of NOD-SCID mouse model xenografted with human PC-3 cells at 25 mg/kg, IG measured upto 48 hrs by LC-MS/MS analysis; type: ADME, organism-based; set-up: time < 48 hrs, dose 25 mg/kg, route ig; conditions: po
A2780 = test: Antitumor activity against human A2780 cells with low Skp2 expression assessed as cell growth inhibition incubated for 72 hrs by MTT assay; type: functional, cell-based; conditions: A2780, 72 h
[20] = MRTlast in tumor of NOD-SCID mouse model xenografted with human PC-3 cells at 25 mg/kg, IG measured upto 48 hrs by LC-MS/MS analysis; type: ADME, organism-based, Neoplasm; conditions: po
PC-3 [21] = test: Induction of apoptosis in human PC-3 cells assessed as necrotic cells at 5 uM incubated for 48 hrs by annexin V-FITC/PI staining based flow cytometry (reference value: 0.14 %); type: functional
PC-3 [22] = test: Antitumor activity against human PC-3 cells xenografted in NOD-SCID mouse model assessed as downregulation of ki67 level at 10 to 50 mg/kg, IG administered once every 2 days for 21 days by Western blot analysis; type: functional, organism-based; conditions: dose 10-50 mg/kg, time 21.0 day
MGC-803 [23] = test: Induction of apoptosis in human MGC-803 cells assessed as late apoptotic cells at 2.5 uM incubated for 48 hrs by annexin V-FITC/PI staining based flow cytometry (reference value: 0.95 %); type: functional
PC-3 [24] = test: Induction of cell cycle arrest in human PC-3 cells assessed as accumulation of cells at S phase at 10 uM incubated for 48 hrs by flow cytometry (reference value: 22.44 %); type: functional
MGC-803 [25] = test: Induction of apoptosis in human MGC-803 cells assessed as nuclear fragmentation incubated for 48 hrs; type: functional, cell-based; conditions: dose <= 10.0 µM
PC-3 [26] = test: Induction of apoptosis in human PC-3 cells assessed as viable cells at 2.5 uM incubated for 48 hrs by annexin V-FITC/PI staining based flow cytometry (reference value: 98.6 %); type: functional; conditions: read-out: Activity
PC-3 [27] = test: Induction of apoptosis in human PC-3 cells assessed as early apoptotic cells at 5 uM incubated for 48 hrs by annexin V-FITC/PI staining based flow cytometry (reference value: 0.85 %); type: functional
MGC-803 [28] = test: Induction of cell cycle arrest in human MGC-803 cells assessed as accumulation of cells at G2 phase at 10 uM incubated for 12 hrs by flow cytometry (reference value: 20.64 %); type: functional
[29] = target: S-phase kinase-associated protein 2 (Homo sapiens, UniProt Q13309); test: Inhibition of Skp2 in human MGC-803 cells treated with shRNA 5'-GGACCTATCGAACTCAGTTAT-3' incubated upto 48 hrs by Western blot analysis (reference value: 7 +/- 1.1 microM); type: cell-based
Sequence of S-phase kinase-associated protein 2 (Q13309 whole entry): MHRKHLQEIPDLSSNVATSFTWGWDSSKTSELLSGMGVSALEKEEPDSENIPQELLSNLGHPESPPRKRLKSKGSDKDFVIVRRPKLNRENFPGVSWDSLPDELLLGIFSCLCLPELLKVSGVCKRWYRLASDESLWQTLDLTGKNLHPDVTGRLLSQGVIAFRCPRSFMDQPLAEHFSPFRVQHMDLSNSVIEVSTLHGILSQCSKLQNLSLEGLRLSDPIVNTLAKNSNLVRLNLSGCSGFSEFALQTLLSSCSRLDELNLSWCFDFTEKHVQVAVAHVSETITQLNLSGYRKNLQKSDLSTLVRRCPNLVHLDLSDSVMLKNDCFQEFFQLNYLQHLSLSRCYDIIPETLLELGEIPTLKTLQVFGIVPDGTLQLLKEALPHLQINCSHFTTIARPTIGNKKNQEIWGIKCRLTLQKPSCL

[30] = Metabolic stability in human liver microsome assessed as half life at 20 umol/L preincubated for 5 mins followed by NADPH addition measured upto 60 mins by LC-MS/MS analysis; type: ADME; conditions: liver microsomes, dose 20 µmol/L, time < 65 min

Drug uptake [17]: Active | Cmax [19]: 176 ng/mL | IC50 (A2780): 14.3 µM | MRT last at 48 h [20]: 9.9 h | IC50 [29]: 39.2 µM | half-life at 20 µM [30]: 1.1 h
SMILES: O=C(CCl)NC1CCN(c2cnc(-c3ccccc3)c(-c3ccccc3)n2)CC1
IC50 (NCI-N87): 15.5 µM | Activity [1]: Non-Toxic | Activity (MGC-803 [2]): 3.65% | Activity (MGC-803 [3]): Tde | Activity (PC-3 [4]): 44.19% | IC50 (ES-2): 3.6 µM | Activity [5]: Non-Toxic | Activity (PC-3 [6]): Active | inhibition (MGC-803 [7]): Active | Activity (MGC-803 [8]): 35.48% | Activity [9]: Non-Toxic | Activity (PC-3 [10]): 48.73% | inhibition in vivo at 25 mg/kg (PC-3 [11]): 71.9% | Activity (PC-3 [12]): 38.62% | Activity (PC-3 [13]): Active | Activity (PC-3 [14]): 28.11% | Activity (PC-3 [15]): 0.96% | Activity [16]: Non-Toxic | Activity (PC-3 [18]): 19.87% | Activity (PC-3 [21]): 5.15% | Activity (PC-3 [22]): Active | Activity (MGC-803 [23]): 6.57% | Activity (PC-3 [24]): 43.58% | Activity (MGC-803 [25]): Dose-Dependent Effect | viability at 2.5 µM (PC-3 [26]): 92.2% | Activity (PC-3 [27]): 0.33% | Activity (MGC-803 [28]): 18.63%
